{"source": "PubChem BioAssay AID1259407", "about": "(Chemical Carcinogenesis Research Information System (CCRIS), 2018)", "test_system": "CCRIS mutagenicity, Ames/micronucleus/aberration tests", "assay": "CCRIS mutagenicity studies", "key": {"[1]": {"settings": "Test System: AMES SALMONELLA TYPHIMURIUM, Strain/Indicator: TA100, Metabolic Activation: NONE, Method: STANDARD PLATE"}}, "note": "Active and inactive are the calls of the source. No rule for the calls is given here.", "data": [{"smiles": "O=[N+]([O-])c1ccc(Oc2c(Cl)cc(Cl)cc2Cl)cc1", "values": [{"measurement": "mutagenic call", "setting": "Test System: AMES SALMONELLA TYPHIMURIUM, Strain/Indicator: TA98, Metabolic Activation: NONE, Method: PREINCUBATION", "result": "inactive; negative"}, {"measurement": "mutagenic call", "setting": "Test System: AMES SALMONELLA TYPHIMURIUM, Strain/Indicator: TA98, Metabolic Activation: NONE, Method: STANDARD PLATE", "result": "inactive; negative"}, {"measurement": "mutagenic call", "setting": "Test System: AMES SALMONELLA TYPHIMURIUM, Strain/Indicator: TA98, Metabolic Activation: RAT LIVER S-9 (10%), PHENOBARBITAL AND 5,6-BENZOFLAVONE, Method: PREINCUBATION", "result": "inactive; negative"}, {"measurement": "mutagenic call", "setting": "Test System: AMES SALMONELLA TYPHIMURIUM, Strain/Indicator: TA98, Metabolic Activation: S-9, Method: STANDARD PLATE", "result": "inactive; negative"}, {"measurement": "mutagenic call", "setting": "Test System: AMES SALMONELLA TYPHIMURIUM, Strain/Indicator: TA100, Metabolic Activation: NONE, Method: PREINCUBATION", "result": "inactive; negative"}, {"measurement": "mutagenic call", "setting": "[1]", "result": "inactive; negative"}, {"measurement": "mutagenic call", "setting": "Test System: AMES SALMONELLA TYPHIMURIUM, Strain/Indicator: TA100, Metabolic Activation: RAT LIVER S-9 (10%), PHENOBARBITAL AND 5,6-BENZOFLAVONE, Method: PREINCUBATION", "result": "inactive; negative"}, {"measurement": "mutagenic call", "setting": "Test System: AMES SALMONELLA TYPHIMURIUM, Strain/Indicator: TA100, Metabolic Activation: S-9, Method: STANDARD PLATE", "result": "inactive; negative"}, {"measurement": "mutagenic call", "setting": "Test System: AMES SALMONELLA TYPHIMURIUM, Strain/Indicator: YG1021, Metabolic Activation: NONE, Method: STANDARD PLATE", "result": "inactive; negative"}, {"measurement": "mutagenic call", "setting": "Test System: AMES SALMONELLA TYPHIMURIUM, Strain/Indicator: YG1021, Metabolic Activation: RAT LIVER S-9 (10%), PHENOBARBITAL AND 5,6-BENZOFLAVONE, Method: PREINCUBATION", "result": "inactive; negative"}, {"measurement": "mutagenic call", "setting": "Test System: AMES SALMONELLA TYPHIMURIUM, Strain/Indicator: YG1021, Metabolic Activation: RAT, LIVER, S-9, PCB, Method: PREINCUBATION", "result": "active; positive"}, {"measurement": "mutagenic call", "setting": "Test System: AMES SALMONELLA TYPHIMURIUM, Strain/Indicator: YG1021, Metabolic Activation: S-9, Method: STANDARD PLATE", "result": "inactive; negative"}, {"measurement": "mutagenic call", "setting": "Test System: AMES SALMONELLA TYPHIMURIUM, Strain/Indicator: YG1024, Metabolic Activation: NONE, Method: PREINCUBATION", "result": "active; positive"}, {"measurement": "mutagenic call", "setting": "Test System: AMES SALMONELLA TYPHIMURIUM, Strain/Indicator: YG1024, Metabolic Activation: NONE, Method: STANDARD PLATE", "result": "inactive; negative"}, {"measurement": "mutagenic call", "setting": "Test System: AMES SALMONELLA TYPHIMURIUM, Strain/Indicator: YG1024, Metabolic Activation: RAT LIVER S-9 (10%), PHENOBARBITAL AND 5,6-BENZOFLAVONE, Method: PREINCUBATION", "result": "active; positive"}, {"measurement": "mutagenic call", "setting": "Test System: AMES SALMONELLA TYPHIMURIUM, Strain/Indicator: YG1024, Metabolic Activation: RAT, LIVER, S-9, PHENOBARBITAL AND 5,6-BENZOFLAVONE, Method: PREINCUBATION", "result": "active; positive"}, {"measurement": "mutagenic call", "setting": "Test System: AMES SALMONELLA TYPHIMURIUM, Strain/Indicator: YG1024, Metabolic Activation: S-9, Method: STANDARD PLATE", "result": "inactive; negative"}, {"measurement": "mutagenic call", "setting": "Test System: AMES SALMONELLA TYPHIMURIUM, Strain/Indicator: YG1026, Metabolic Activation: NONE, Method: STANDARD PLATE", "result": "inactive; negative"}, {"measurement": "mutagenic call", "setting": "Test System: AMES SALMONELLA TYPHIMURIUM, Strain/Indicator: YG1026, Metabolic Activation: RAT LIVER S-9 (10%), PHENOBARBITAL AND 5,6-BENZOFLAVONE, Method: PREINCUBATION", "result": "inactive; negative"}, {"measurement": "mutagenic call", "setting": "Test System: AMES SALMONELLA TYPHIMURIUM, Strain/Indicator: YG1026, Metabolic Activation: RAT, LIVER, S-9, PCB, Method: PREINCUBATION", "result": "active; positive"}, {"measurement": "mutagenic call", "setting": "Test System: AMES SALMONELLA TYPHIMURIUM, Strain/Indicator: YG1026, Metabolic Activation: S-9, Method: STANDARD PLATE", "result": "inactive; negative"}, {"measurement": "mutagenic call", "setting": "Test System: AMES SALMONELLA TYPHIMURIUM, Strain/Indicator: YG1029, Metabolic Activation: NONE, Method: PREINCUBATION", "result": "inactive; negative"}, {"measurement": "mutagenic call", "setting": "Test System: AMES SALMONELLA TYPHIMURIUM, Strain/Indicator: YG1029, Metabolic Activation: NONE, Method: STANDARD PLATE", "result": "active; positive"}, {"measurement": "mutagenic call", "setting": "Test System: AMES SALMONELLA TYPHIMURIUM, Strain/Indicator: YG1029, Metabolic Activation: RAT LIVER S-9 (10%), PHENOBARBITAL AND 5,6-BENZOFLAVONE, Method: PREINCUBATION", "result": "active; positive"}, {"measurement": "mutagenic call", "setting": "Test System: AMES SALMONELLA TYPHIMURIUM, Strain/Indicator: YG1029, Metabolic Activation: RAT, LIVER, S-9, AROCLOR 1254, Method: STANDARD PLATE", "result": "active; positive"}, {"measurement": "mutagenic call", "setting": "Test System: AMES SALMONELLA TYPHIMURIUM, Strain/Indicator: YG1029, Metabolic Activation: RAT, LIVER, S-9, PHENOBARBITAL AND 5,6-BENZOFLAVONE, Method: PREINCUBATION", "result": "active; positive"}, {"measurement": "mutagenic call", "setting": "Test System: AMES SALMONELLA TYPHIMURIUM, Strain/Indicator: YG1029, Metabolic Activation: S-9, Method: STANDARD PLATE", "result": "active; positive"}]}, {"smiles": "CC1(C)CCC[C@]2(C)C(C=O)C(C=O)=CC[C@@H]12", "note": "(stereo partly specified)", "values": [{"measurement": "mutagenic call", "setting": "Test System: AMES SALMONELLA TYPHIMURIUM, Strain/Indicator: TA98, Metabolic Activation: RAT, LIVER, S-9, AROCLOR 1254, Method: STANDARD PLATE", "result": "inactive; negative"}, {"measurement": "mutagenic call", "setting": "[1]", "result": "inactive; negative"}, {"measurement": "mutagenic call", "setting": "Test System: AMES SALMONELLA TYPHIMURIUM, Strain/Indicator: TA2637, Metabolic Activation: NONE, Method: STANDARD PLATE", "result": "inactive; negative"}, {"measurement": "mutagenic call", "setting": "Test System: CHINESE HAMSTER V-79, Strain/Indicator: V-79/6-THIOGUANINE (HGPRT), Metabolic Activation: NONE", "result": "inactive; negative"}]}]}
